The source of these data is US12139508B2, “Steroid derivative regulators, method for preparing the same, and uses thereof” (JIANGSU HANSOH PHARMACEUTICAL GROUP CO., LTD., priority 2018, dated 2024).

Read-outs that look alike come from different tables or passages of the source.

Data set [1] is described as follows: Pharmacokinetic assay in Balb/c mice (plasma and brain tissue). It is filed as in vivo. The settings on record: mouse, po, 5 mg/kg p.o., male Balb/c mice; for AUC(0-t): read-out: Area under curve AUC0-t; for AUC(0-inf): read-out: Area under curve AUC0-∞; for half-life: read-out: Half-life t1/2 (converted); for MRT: read-out: Mean residence time MRT; for Tmax: read-out: Peak time tmax; for Cmax: read-out: Plasma concentration Cmax. The method, boiled down:
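Compound levels in plasma and brain were measured by LC/MS/MS with an internal standard after protein precipitation with acetonitrile. Samples came from overnight-fasted male Balb/c mice given 5 mg/kg p.o., with cardiac blood drawn at 0–24 h. Pharmacokinetic parameters were then calculated.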

The next data set has as its system forced-swimming mice. Nature of the data set: In vivo pharmacodynamic test in the forced swimming model in mice. The settings on record: ICR mice; for Mean (immobility, %): 100*floating time/240 s. As for the experimental part:
The antidepressant effect of the compound was evaluated by the forced swimming model in mice.
Male ICR mice (25-35 g) were adapted in the test environment for 3 days before the forced swimming test.
According to the test design, the mice were randomly grouped on the day before the test according to body weight, with 12 mice in each group. Before the test, the compounds of each example were administered intragastrically according to the Tmax thereof in the brain in mice pharmacokinetic test as follows: • 1) Model group (0.5% CMC-Na-1% Tween 80 solution, p.o., 10 mL/kg); • 2) Compounds of Example 2, Example 3, Example 5, Example 6, Example 9, Examples 59-63, Examples 71-73, Example 103, Example 135, Example 137, Example 145 and Example 146 (10 mg/kg, p.o., 10 mL/kg); Example 13 and Example 74 (5 mg/kg, p.o., 5 mL/kg).
When being administered, the compounds of each example were suspended in 0.5% CMC-Na+1% Tween 80 solution to the desired concentration.
0.5-1 hour after administration, ICR mice were placed in a forced swimming device (transparent glass drum (water depth 18 cm, water temperature 25-26° C.), one mouse per tank) and forced to swim for 6 minutes. The forced swimming device recorded the floating time of the ICR mice during the entire 6 minutes, and the data of the latter four minutes were used for data analysis. The mice were taken out immediately after the swimming test, wiped dry and put back in their original cages.
Note: The criterion for determining the immobility time is that the mouse stops struggling in water and floats, and there are only slight limb movements to keep the head floating on the water.
3.4 Data Analysis Floating time percentage=100*floating time/240 s.

Data set [2] deals with PTZ-induced epilepsy model in CD-1 mice. Description: In vivo pharmacodynamic test in the PTZ-induced epilepsy model in mice. The settings on record: dose 3 mpk p.o., PTZ 120 mg/kg s.c., 30 min observation. On the procedure: The PTZ-induced epilepsy model in CD-1 mice was established, and the antiepileptic effect of the compounds of Example 3, Example 60, Example 61 and Example 74 was evaluated using this model.
50 male CD-1 mice were purchased from Beijing Vital River Laboratory Animal Technology Co. Ltd. The test animals were adapted at the animal room in the third building of Shanghai ChemPartner Co., Ltd for 7 days before the test. The average body weight of the animals on the test day was 32.2±0.2 grams. Feeding environment: 5 animals/cage, room temperature 23±2° C., 12/12 hours of light and dark cycle, free acess to food and water.
4.2.1 Test Equipments • 1 ml sterile disposable syringe with needle (purchased from Zhejiang Kangdelai Medical Devices Co., Ltd.) • Pipette: Eppendorf Research Plus (100-1000 L) • Vortex mixer: Kylin-Bell Vortex 5 • Ultrasonic instrument: JL-360 ultrasonic cleaner • Balance: METTLER TOLEDO™ XS204 precision balance (note: METTLER TOLEDO™ is a kind of balance used in labs and industry) • Balance: METTLER TOLEDO™ XS6002S electronic balance (note: METTLER TOLEDO™ is a kind of balance used in labs and industry) • Plexiglass box: 25 cm length*15 cm width*15 cm height with one opaque side wall, custom made by Suzhou Fengshi Laboratory Animal Equipment Co., Ltd • 3-channel timer: Oregon/Model NO.WB-388. 4.2.2 Test Animal Grouping • 1) Vehicle/PTZ: 0.5% CMC-Na+1% Tween-80 (10 ml/kg, p.o.), administered 0.5 hr before the PTZ administration; PTZ ([…], s.c.), administered before the test; • 2) 3 mg/kg of the compounds of Examples/PTZ: the compounds of Example 3, Example 60, Example 61 and Example 74 (3 mg/kg, 10 ml/kg, p.o.), administered 0.5 hr before the PTZ administration; PTZ ([…], s.c.), administered before the test. 4.3 Experimental Procedures 4.3.1 Solvent Formulation 1) 0.5% CMC-Na+1% Tween-80 (Administration Volume: 10 mL/Kg):
4.4 Adaptation to the Environment
The mice were randomly grouped, marked and weighed; 10 mice per group. The test compound was administered orally at an administration volume of 10 mL/kg 30-60 minutes before the PTZ administration.
PTZ (120 mg/kg) was administrated subcutaneously before the test observation, and this time point was recorded as the observation start point; after the administration of PTZ, the animal was immediately placed in the observation box and observed for 30 minutes, and the followings were recorded: a) the incubation period of the first clonic seizure, b) the incubation period of the first generalized tonic seizure, c) the number of clonic seizures, d) the number of generalized tonic seizures, e) the time when the animal died.
All measurement data were expressed as Mean±SEM, and analysed with Prism 6.0 statistical software.

For the compound `C[C@@H]1C[C@H](C(=O)Cn2nccn2)[C@@]2(C)CC[C@H]3[C@@H](CC[C@@H]4C[C@](C)(O)CC[C@@H]43)[C@H]12` [Example 61, 1-((3R,5R,8R,9R,10S,13S,14S,15R,17S)-3-Hydroxy-3,13,15-trimethylhexadecahydro-1H-cyclopenta[a]phenanthren-17-yl)-2-(2H-1,2,3-triazol-2-yl)ethan-1-one], in data set [1] (brain tissue), the AUC(0-t) turned out to be 657 ng·h/mL, the AUC(0-inf) came to 676 ng·h/mL, the half-life was 3.95 h and the MRT was 1.41 h. Besides, in data set [1] (brain tissue), the Tmax was 0.5 h and the Cmax was determined as 711 ng/mL. Also, in data set [1] (plasma), the AUC(0-t) stood at 588 ng·h/mL, the AUC(0-inf) was found to be 605 ng·h/mL, the half-life is 3.27 h and the mean residence time MRT turned out to be 1.48 h. In data set [1] (plasma), the Tmax stood at 0.5 h and the Cmax came to 525 ng/mL. Moreover, the “Mean (immobility, %)” value in the data set on forced-swimming mice (dose 10 mpk p.o.) stood at 35.75%. The “Immobility time during the latter four minutes compared with that of the model group” value with forced-swimming mice (forced swimming) is given as “significantly different”. Besides, in data set [2], the “Incubation period of the clonic seizure, Mean ± SEM” value is 841.4 ± 179.8 s; the “Incubation period of the generalized tonic seizure, Mean” value amounted to 1497.4 ± 124.3 s; the Mortality rate is on record as 40%; the “Number of clonic seizures, Mean” value stood at 1.9 ± 0.4. In addition, in data set [2], the “Number of generalized tonic seizures, Mean” value is given as 0.5 ± 0.2 and the “Time when the animal died, Mean” value is 1573.1 ± 117.9 s.

Turning to `Cc1nnn(CC(=O)[C@H]2C[C@@H](C3CC3)[C@H]3[C@@H]4CC[C@@H]5C[C@](C)(O)CC[C@@H]5[C@H]4CC[C@@]32C)n1` [Example 74, 1-((3R,5R,8R,9R,10S,13S,14S,15S,17S)-15-Cyclopropyl-3-hydroxy-3,13-dimethylhexadecahydro-TH-cyclopenta[a]phenanthren-17-yl)-2-(5-methyl-2H-tetrazol-2-yl)ethan-1-one], in data set [1] (brain tissue), the AUC(0-t) came out at 5850 ng·h/mL, the AUC(0-inf) was 6510 ng·h/mL, the half-life was 2.28 h and the MRT was determined as 3.82 h. Besides, in data set [1] (brain tissue), the Tmax stood at 1 h and the Cmax amounted to 1520 ng/mL. Moreover, in data set [1] (plasma), the AUC(0-t) worked out at 7160 ng·h/mL, the AUC(0-inf) was 8600 ng·h/mL, the half-life is 3.06 h and the mean residence time MRT turned out to be 4.59 h. In data set [1] (plasma), the Tmax stood at 0.5 h and the Cmax came out at 2140 ng/mL. Further, the “Mean (immobility, %)” value with forced-swimming mice (dose 5 mpk p.o.) is given as 38.00%. Besides, in data set [2], the “Incubation period of the clonic seizure, Mean ± SEM” value was 635.4 ± 149.9 s; the “Incubation period of the generalized tonic seizure, Mean” value is 1506.8 ± 149.8 s; the Mortality rate was found to be 30%; the “Number of clonic seizures, Mean” value is recorded as 1.8 ± 0.3. Also, in data set [2], the “Number of generalized tonic seizures, Mean” value is 0.3 ± 0.2 and the “Time when the animal died, Mean” value was determined as 1618.1 ± 121.3 s.

Usually MRT stands for the average time that molecules of a dose stay in the body. As a reminder, the Tmax is the time at which the peak concentration occurs.
